{"source": "BigSolDB 2.1"}
{"smiles": "C=C(C)[C@@H]1CC[C@]2(C(=O)O)CC[C@]3(C)[C@H](CC[C@@H]4[C@@]5(C)CC[C@H](O)C(C)(C)[C@@H]5CC[C@]43C)[C@@H]12", "values": [{"measurement": "solubility (mole fraction)", "setting": "in THF, 278.2 K", "value": 0.00975}, {"measurement": "solubility (mole fraction)", "setting": "in THF, 288.2 K", "value": 0.0136}, {"measurement": "solubility (mole fraction)", "setting": "in THF, 298.2 K", "value": 0.0206}, {"measurement": "solubility (mole fraction)", "setting": "in THF, 308.2 K", "value": 0.0276}, {"measurement": "solubility (mole fraction)", "setting": "in THF, 318.2 K", "value": 0.0388}, {"measurement": "solubility (mole fraction)", "setting": "in acetone, 278.2 K", "value": 0.000398}, {"measurement": "solubility (mole fraction)", "setting": "in acetone, 288.2 K", "value": 0.000502}, {"measurement": "solubility (mole fraction)", "setting": "in acetone, 298.2 K", "value": 0.000598}, {"measurement": "solubility (mole fraction)", "setting": "in acetone, 308.2 K", "value": 0.000829}, {"measurement": "solubility (mole fraction)", "setting": "in acetone, 318.2 K", "value": 0.00103}, {"measurement": "solubility (mole fraction)", "setting": "in ethanol, 278.2 K", "value": 0.000651}, {"measurement": "solubility (mole fraction)", "setting": "in ethanol, 288.2 K", "value": 0.000819}, {"measurement": "solubility (mole fraction)", "setting": "in ethanol, 298.2 K", "value": 0.00107}, {"measurement": "solubility (mole fraction)", "setting": "in ethanol, 308.2 K", "value": 0.00135}, {"measurement": "solubility (mole fraction)", "setting": "in ethanol, 318.2 K", "value": 0.00171}, {"measurement": "solubility (mole fraction)", "setting": "in ethyl acetate, 278.2 K", "value": 0.00045}, {"measurement": "solubility (mole fraction)", "setting": "in ethyl acetate, 288.2 K", "value": 0.000515}, {"measurement": "solubility (mole fraction)", "setting": "in ethyl acetate, 298.2 K", "value": 0.000733}, {"measurement": "solubility (mole fraction)", "setting": "in ethyl acetate, 308.2 K", "value": 0.000956}, {"measurement": "solubility (mole fraction)", "setting": "in ethyl acetate, 318.2 K", "value": 0.00124}, {"measurement": "solubility (mole fraction)", "setting": "in ethyl formate, 278.2 K", "value": 0.0002}, {"measurement": "solubility (mole fraction)", "setting": "in ethyl formate, 288.2 K", "value": 0.000272}, {"measurement": "solubility (mole fraction)", "setting": "in ethyl formate, 298.2 K", "value": 0.000428}, {"measurement": "solubility (mole fraction)", "setting": "in ethyl formate, 308.2 K", "value": 0.000548}, {"measurement": "solubility (mole fraction)", "setting": "in ethyl formate, 318.2 K", "value": 0.000786}, {"measurement": "solubility (mole fraction)", "setting": "in isopropanol, 278.2 K", "value": 0.000765}, {"measurement": "solubility (mole fraction)", "setting": "in isopropanol, 288.2 K", "value": 0.00092}, {"measurement": "solubility (mole fraction)", "setting": "in isopropanol, 298.2 K", "value": 0.0012}, {"measurement": "solubility (mole fraction)", "setting": "in isopropanol, 308.2 K", "value": 0.00149}, {"measurement": "solubility (mole fraction)", "setting": "in isopropanol, 318.2 K", "value": 0.00196}, {"measurement": "solubility (mole fraction)", "setting": "in methanol, 278.2 K", "value": 0.00019}, {"measurement": "solubility (mole fraction)", "setting": "in methanol, 288.2 K", "value": 0.000248}, {"measurement": "solubility (mole fraction)", "setting": "in methanol, 298.2 K", "value": 0.000339}, {"measurement": "solubility (mole fraction)", "setting": "in methanol, 308.2 K", "value": 0.000461}, {"measurement": "solubility (mole fraction)", "setting": "in methanol, 318.2 K", "value": 0.000734}, {"measurement": "solubility (mole fraction)", "setting": "in n-butanol, 278.2 K", "value": 0.00118}, {"measurement": "solubility (mole fraction)", "setting": "in n-butanol, 288.2 K", "value": 0.00149}, {"measurement": "solubility (mole fraction)", "setting": "in n-butanol, 298.2 K", "value": 0.00192}, {"measurement": "solubility (mole fraction)", "setting": "in n-butanol, 308.2 K", "value": 0.00234}, {"measurement": "solubility (mole fraction)", "setting": "in n-butanol, 318.2 K", "value": 0.003}, {"measurement": "solubility (mole fraction)", "setting": "in n-butyl acetate, 278.2 K", "value": 0.000824}, {"measurement": "solubility (mole fraction)", "setting": "in n-butyl acetate, 288.2 K", "value": 0.001}, {"measurement": "solubility (mole fraction)", "setting": "in n-butyl acetate, 298.2 K", "value": 0.0012}, {"measurement": "solubility (mole fraction)", "setting": "in n-butyl acetate, 308.2 K", "value": 0.00159}, {"measurement": "solubility (mole fraction)", "setting": "in n-butyl acetate, 318.2 K", "value": 0.00193}, {"measurement": "solubility (mole fraction)", "setting": "in n-hexanol, 278.2 K", "value": 0.00226}, {"measurement": "solubility (mole fraction)", "setting": "in n-hexanol, 288.2 K", "value": 0.00283}, {"measurement": "solubility (mole fraction)", "setting": "in n-hexanol, 298.2 K", "value": 0.00324}, {"measurement": "solubility (mole fraction)", "setting": "in n-hexanol, 308.2 K", "value": 0.00378}, {"measurement": "solubility (mole fraction)", "setting": "in n-hexanol, 318.2 K", "value": 0.00454}, {"measurement": "solubility (mole fraction)", "setting": "in n-pentanol, 278.2 K", "value": 0.00199}, {"measurement": "solubility (mole fraction)", "setting": "in n-pentanol, 288.2 K", "value": 0.00228}, {"measurement": "solubility (mole fraction)", "setting": "in n-pentanol, 298.2 K", "value": 0.00266}, {"measurement": "solubility (mole fraction)", "setting": "in n-pentanol, 308.2 K", "value": 0.00309}, {"measurement": "solubility (mole fraction)", "setting": "in n-pentanol, 318.2 K", "value": 0.00363}, {"measurement": "solubility (mole fraction)", "setting": "in n-propanol, 278.2 K", "value": 0.00103}, {"measurement": "solubility (mole fraction)", "setting": "in n-propanol, 288.2 K", "value": 0.00137}, {"measurement": "solubility (mole fraction)", "setting": "in n-propanol, 298.2 K", "value": 0.00178}, {"measurement": "solubility (mole fraction)", "setting": "in n-propanol, 308.2 K", "value": 0.00221}, {"measurement": "solubility (mole fraction)", "setting": "in n-propanol, 318.2 K", "value": 0.0028}, {"measurement": "solubility (mole fraction)", "setting": "in sec-butanol, 278.2 K", "value": 0.000821}, {"measurement": "solubility (mole fraction)", "setting": "in sec-butanol, 288.2 K", "value": 0.00113}, {"measurement": "solubility (mole fraction)", "setting": "in sec-butanol, 298.2 K", "value": 0.00149}, {"measurement": "solubility (mole fraction)", "setting": "in sec-butanol, 308.2 K", "value": 0.00189}, {"measurement": "solubility (mole fraction)", "setting": "in sec-butanol, 318.2 K", "value": 0.00245}]}
